Here are results for three compounds from publication PMC12511766 (Frontiers in Pharmacology, 2025).

Structures are written as SMILES. Where two headings read alike, the source gives them in different places.

Series [1] is described as follows: Adverse events (NCI CTCAE v5.0), Phase Ib study. It counts as in vivo, human. The settings on record: for Patients with AE leading to discontinuation of the drug / Patients with AE leading to dose interruption of the drug / Patients with AE leading to dose reduction of the drug / Patients with AE related to the drug: all enrolled patients. From the text:
Safety assessments consisted of monitoring and recording adverse events, including serious adverse events and adverse events of special interest, performing protocol-specified safety laboratory assessments, measuring protocol-specified vital signs, and conducting other protocol-specified tests that are deemed critical to the safety evaluation of the study. The adverse event severity grading scale for the NCI Common Terminology Criteria for Adverse Events (CTCAE) v5.0 was used for assessing adverse event severity. If daily dosing of ipatasertib was not tolerated, dosing with food might be used to alleviate gastrointestinal symptoms. […] For ipatasertib, with a starting dose of 300 mg, the first dose reduction was to 200 mg and the second down to 100 mg.

For series [2], the system named is CYP3A. The following applies: 2021, cited from earlier work.
For series [3] the following is noted: cited from earlier work.
The subject of series [4] is CYP3A. The following applies: 2021, cited from earlier work. The source holds these as a separate data set.
Series [5] can be described thus: Steady-state plasma PK of ipatasertib and M1 (LC-MS/MS, noncompartmental analysis), Phase Ib study. It counts as in vivo, human. The settings on record: for Tmax: 300 mg, median (range). The procedure:
From Cycle 2 Day 1 onward, ipatasertib was taken orally and daily on Days 1–21 of each 28-day cycle. […] Additionally, fulvestrant 500 mg was given via intramuscular (IM) injection on Days 1 and 15 of Cycle 1, and then on Day 1 of each subsequent 28-day cycle. […] The initial safety follow-up extended through at least Day 15 of Cycle two for all patients. […] PK samples for ipatasertib and its major metabolite, M1 (G-037720), were collected at specified time points: 15 min pre-dose, 0.5, 1, 2, 3, 4, 6 h post-dose on Day 1 of Cycle 1, and Day 15 of Cycle 1, as well as 15 min pre-dose on Day 15 of Cycle 2 and 15 min pre-dose and 2 h post-dose on Day 15 of Cycle 3. […] The plasma concentrations of ipatasertib and its metabolite M1 was determined using a previously reported, validated liquid chromatography-tandem mass spectrometry assay (LC-MS/MS) ([Sutaria et al., 2022]). […] The sample analyses were performed at Labcorp Early Drug Development Laboratories, Inc. (Madison, WI, Unitd States) using a Shimadzu LC instrument equipped with an Agilent Polaris C8-A column (2.0 × 50 mm, 5 μm) interfaced with a Sciex API 4000 mass spectrometer operated in positive electrospray ionization mode. […] Noncompartmental PK analysis (NCA) was performed using the commercial software Phoenix WinNonlin (Certara Unitd States, Inc., Princeton, NJ, Unitd States, Version 8.1) to characterize the PK parameters of ipatasertib and M1 including maximal concentration (Cmax), time to maximal concentration (Tmax), area under the curve from time 0 to the last measurable concentration (AUC0-t). […] Non-compartmental PK analyses were performed using Phoenix(R) WinNonlin (Version 8.3, Certara). […] A linear mixed model with a fixed effect for treatment and a random effect for patients was used on the natural log-transformed PK parameters.

The subject of series [6] is CYP3A. The arrangement: method as in Jing et al., 2022. The settings on record: ipatasertib 300 mg in the presence of palbociclib; ref Jing et al., 2022; cited from earlier work.
Series [7] can be described thus: Palbociclib predose plasma concentrations (LC-MS/MS), Phase Ib study. It counts as in vivo, human. The settings on record: for Palbociclib plasma concentration, C2D15 predose / Palbociclib plasma concentration, C1D15 predose / Palbociclib plasma concentration, C3D15 predose: 125 mg, Geomean (geoCV%).
A short description of series [8]: Palbociclib PK parameters estimated with established popPK model. The class given is in vivo, human.
The mark [9] stands for this setting: ipatasertib 100 mg single dose with itraconazole, ref Sane et al.
The mark [10] stands for this setting: 300 mg QD with 125 mg palbociclib and fulvestrant vs alone.
[11] abbreviates: C1D15 (with palbociclib and fulvestrant) / C1D1 (ipatasertib alone).
[12] abbreviates: human, plasma, oral, C1D1, ipatasertib 300 mg QD alone, N = 9, geometric mean (%geoCV).
[13] abbreviates: ipatasertib coadministered with palbociclib and fulvestrant vs ipatasertib alone.
Where [14] appears, read: palbociclib administered alone, ref U.S. Food and Drug Administration, 2014.
Setting [15] is: additional patients for safety evaluation, N 9.

On to `C[C@]12CC[C@@H]3c4ccc(O)cc4C[C@@H](CCCCCCCCC[S+]([O-])CCCC(F)(F)C(F)(F)F)[C@H]3[C@@H]1CC[C@@H]2O` (some centres unmarked) [Fulvestrant], for which, in series [1], the “Patients with AE leading to discontinuation of the drug” value is 0 Number of patients (%), the “Patients with AE leading to dose interruption of the drug” value was 5 (25%) Number of patients (%), the “Patients with AE leading to dose reduction of the drug” value is 0 Number of patients (%) and the “Patients with AE related to the drug” value is 16 (80%) Number of patients (%). For the same compound, in series [1] (triplet regimen, 20 patients), the “AE considered related to the drug: anemia” value is on record as 10%, the “AE considered related to the drug: asthenia” value worked out at 15% and the “AE considered related to the drug: hot flush” value is on record as 10%. Also, the “CYP3A inhibition / induction classification” value in the series with CYP3A [2] (ref U.S. Food and Drug Administration) is “not an inhibitor or inducer of CYP3A”.

In the case of `CC(C)NC[C@@H](C(=O)N1CCN(c2ncnc3c2[C@H](C)C[C@H]3O)CC1)c1ccc(Cl)cc1` [Ipatasertib], in series [3] (background statement, no reference printed with the sentence), the Effective half-life result is listed as “approximately 24 h”. Further, the “AUC0-24,ss” value in series [3] (ipatasertib 400 mg in other clinical studies, ref Yoshida et al., 2021) is 2,920 ng*hr/mL. Moreover, in series [3] (over the range of 200–800 mg, no reference printed with the sentence), the “Dose proportionality of exposure” value was “dose-proportional”. Further, in the series with CYP3A [4] (setting [9]), the “Increase in AUC0-∞ with itraconazole” value is 5.45 fold and the “Increase in Cmax with itraconazole” value is listed as 2.26 fold. Moreover, the “Increase in AUC0-∞ of midazolam” value with CYP3A [4] (single dose of ipatasertib 600 mg with midazolam, ref Malhi et al.) is 2.22 fold. Besides, in series [5] (setting [10]), the “Increase in AUC0-24,ss” value is on record as 1.68 fold and the “Increase in Cmax,ss” value came out at 1.49 fold. For the same compound, the “AUC0-24,ss at 300 mg in presence of palbociclib relative to 400 mg in other clinical studies” value in series [5] (3,637 vs 2,920 ng*hr/mL) is “about 1.25 times”. In series [5] (setting [11]), the “AUC0-24,ss geometric mean ratio (GMR) (90% CI)” value is on record as 1.68 (1.41, 2.00) and the “Cmax,ss geometric mean ratio (GMR) (90% CI)” value was 1.49 (1.18, 1.88). For the same compound, the time to peak (Tmax) in series [5] (human, plasma, oral, C1D1, ipatasertib 300 mg QD alone) is 1 h. Besides, in series [5] (human, plasma, oral, C1D15, ipatasertib 300 mg QD with palbociclib and fulvestrant), the time to peak (Tmax) was determined as 1.9 h. In series [5] (setting [12]), this compound showed an AUC0-24,ss of 2170 ng·h/mL and a Cmax of 294 ng/mL. Moreover, in series [5] (setting [13]), the “Increase in AUC0-24,ss” value came to 68% and the “Increase in Cmax,ss” value is listed as 49%. Moreover, in series [1], the “Patients with AE leading to discontinuation of the drug” value is 1 (5%) Number of patients (%), the “Patients with AE leading to dose interruption of the drug” value is on record as 16 (80%) Number of patients (%), the “Patients with AE leading to dose reduction of the drug” value is 9 (45%) Number of patients (%) and the “Patients with AE related to the drug” value was 20 (100%) Number of patients (%). In series [1] (triplet regimen, 20 patients), the “AE considered related to the drug: anemia” value is 30%, the “AE considered related to the drug: diarrhea” value is 75%, the “AE considered related to the drug: fatigue” value turned out to be 25% and the “AE considered related to the drug: nausea” value is 70%. For the same compound, in series [1] (triplet regimen, 20 patients), the “AE considered related to the drug: neutropenia” value worked out at 30%, the “AE considered related to the drug: neutrophil count decreased” value came out at 25%, the “AE considered related to the drug: platelet count decreased” value is listed as 30% and the “AE considered related to the drug: rash” value was determined as 35%. Also, the “AE considered related to the drug: vomiting” value in series [1] (triplet regimen, 20 patients) came to 45%. Besides, in the series with CYP3A [6], the “PBPK-predicted increase in AUC” value is listed as 48% and the “PBPK-predicted increase in Cmax” value is reported as 23%. Moreover, in the series with CYP3A [2] (in vitro, ref Malhi et al.), the CYP3A inhibition classification result was “mild to moderate CYP3A inhibitor”. In the series with CYP3A [2] (ref Sane et al.), the CYP3A4 substrate classification result is on record as “sensitive substrate”.

`CC(=O)c1c(C)c2cnc(Nc3ccc(N4CCNCC4)cn3)nc2n(C2CCCC2)c1=O` [Palbociclib]: in series [3] (setting [14]), the “AUC0-24,ss” value was 1982 ng·h/mL and the “Cmax,ss” value is 116 ng/mL. Also, in series [1], the “Patients with AE leading to discontinuation of the drug” value is recorded as 1 (5%) Number of patients (%), the “Patients with AE leading to dose interruption of the drug” value was 13 (65%) Number of patients (%), the “Patients with AE leading to dose reduction of the drug” value is listed as 10 (50%) Number of patients (%) and the “Patients with AE related to the drug” value is 20 (100%) Number of patients (%). In series [1] (triplet regimen, 20 patients), the “AE considered related to the drug: anemia” value is on record as 40%, the “AE considered related to the drug: asthenia” value is recorded as 25%, the “AE considered related to the drug: diarrhea” value is recorded as 30% and the “AE considered related to the drug: nausea” value was found to be 40%. In series [1] (triplet regimen, 20 patients), the “AE considered related to the drug: neutropenia” value came to 45%, the “AE considered related to the drug: neutrophil count decreased” value is recorded as 40%, the “AE considered related to the drug: platelet count decreased” value was 30% and the “AE considered related to the drug: stomatitis” value amounted to 25%. The “Palbociclib plasma concentration, C2D15 predose” value in series [7] (additional patients for safety evaluation, N 6) is listed as 83.2 (19.4) ng/mL. Moreover, in series [7] (setting [15]), the “Palbociclib plasma concentration, C1D15 predose” value was 73.8 (20.7) ng/mL and the “Palbociclib plasma concentration, C3D15 predose” value is given as 67.5 (51.0) ng/mL. Besides, in series [7] (ipatasertib run-in group, N 9), the “Palbociclib plasma concentration, C1D15 predose” value is 69.9 (57.2) ng/mL. In series [7] (ipatasertib run-in group, N 10), the “Palbociclib plasma concentration, C2D15 predose” value is recorded as 76.9 (44.9) ng/mL and the “Palbociclib plasma concentration, C3D15 predose” value is listed as 71.5 (43.5) ng/mL. Moreover, the “Palbociclib plasma concentration, C2D15 predose” value in series [7] (total, N 16) is 79.2 (36.4) ng/mL. Further, the “Palbociclib plasma concentration, C1D15 predose” value in series [7] (total, N 18) is recorded as 71.8 (40.8) ng/mL. In addition, the “Palbociclib plasma concentration, C3D15 predose” value in series [7] (total, N 19) is given as 69.6 (45.7) ng/mL. Besides, the Cmin result in series [7] (palbociclib in this study with ipatasertib and fulvestrant (summary of Table 3)) is reported as “approximately 70 ng/mL”. Further, in series [8] (human, plasma, oral, 125 mg, read-out: AUC0-24,ss (popPK-estimated)), the AUC over 24 h dosing interval at steady state was 2600 ng·h/mL. The “Cmax,ss (popPK-estimated)” value in series [8] (palbociclib 125 mg with ipatasertib and fulvestrant, geometric mean (%CV)) is on record as 124 ng/mL.
